Test results: PMC8510480, “Searching Anti-Zika Virus Activity in 1H-1,2,3-Triazole Based Compounds” (Molecules, 2021)

Assays:
[1] = Cytotoxicity test with MTT method in Vero cells; type: cell-based, African green monkey; settings: African green monkey, 5 days, read-out: CC50 (50% cytotoxic concentration)
Method: (§1) The cytotoxicity of compounds 1–7 to Vero cells, an epithelial cell line derived from the kidney of an African green monkey, was tested using the 3-(4,5-dimethylthiazol-2-yl)-2,5-diphenyltetrazolium bromide (MTT) method. […] Based on CC20 values, which was the maximum concentration used for antiviral screening, 3b compound was the least toxic with a value of 527.2 µM. Compounds 2a and 2b were the most cytotoxic with values of 8.87 µM and 9.89 µM, respectively. […] The results from compounds 3a, 3b and 4a, 4b ranged from 40.69 to 527.20 µM. […] The presence of phthalimide group or sugar increases the values of CC20 and CC50 (Table 2 and Supplementary Material: Figure S1).
(§2) 96-well plates with 1 × 10^4 cell/well were used in this assay and prepared 24 h previously. The compounds were diluted in a 2:1 ratio so that a maximum of 0.8% DMSO was used. The concentrations used were 800, 400, 200, 100, 50, 25 and 12.5 µM. Dilutions were added to the wells in triplicate and incubated at 37 °C and 5% CO2 atmosphere. After 5 days, the wells were emptied and a 50 µL of 1 mg/mL MTT (3-(4,5-dimethylthiazol-2-yl)-2,5-diphenyltetrazolium bromide) (Sigma-Aldrich) solution was added, and the cells were incubated for 3–4 h for formation of formazan crystals through the mitochondria of viable cells. Then, medium was removed and 100 µL DMSO was added to the wells to solubilize the formazan crystals. With the aid of an incubator Tecnal TE-420 (Tecnal Equipamentos Científicos, Piracicaba, São Paulo, Brazil), the plates were homogenized at 120 RPM at 37 °C and the optical densities were read at 570 nm on a spectrophotometer BioTekTM ELx800TM (BioTek Instruments, Winooski, VT, USA).
(§3) The determination of the CC20 and CC50 values was obtained through the linear regression analysis of the XY graph generated by the values of the concentrations used in the test and the triplicate values of the viability. In the post-infection and pre-treatment tests, ANOVA and Dunnett tests were used, considering […] as the minimum significance value. All tests were performed in GraphPad Prism v.6.0 program (GraphPad Software, Inc., San Diego, CA, USA).

[2] = tested on: Vero cells; test: Cytotoxicity test with MTT method in Vero cells; type: cell-based, African green monkey; settings: 5 days
Method: as §1, §2, §3

[3] = tested on: ZIKV; test: Pre-treatment test to ZIKV in Vero cells; type: cell-based, Zika virus; settings: 1 h pre-treatment at 136.90, 68.45, 34.22 and 17.11 µM, then ZIKV MOI 0.1, 5 days
Method: Since compound 4b was the only one in the series with activity against ZIKV, further experiments were conducted to elucidate its mechanism of action in cells that were pre-treated. To this, cells were pre-treated with varying concentrations of compound 4b, washed, and then infected with ZIKV. The concentrations used were chosen with the aim to preserve cellular viability and, thus, the maximum concentration was the previously determined CC20 value (136.90, 68.45, 34.22 and 17.11 µM).
Figure 5 Graphic result for compound 4b in the pre-treatment test to ZIKV. Vero cells in a 48-well cell plate were treated with 4b in different concentrations and after 1 h the supernatant was discarded. Cells were washed with PBS 1X, ZIKV MOI 0.1 was inoculated, and the plate was incubated again. After five days, the supernatant was collected and titrated by TCID50 method. The experiment was conducted in triplicates and values are the mean and the SD. […]
96-well plates with 1 × 10^4 cell/well were used in this assay and prepared 24 h previously. […] The reading was performed in an inverted optical microscope AE2000, Motic (Motic, Kowloon Bay, Hong Kong) counting positives wells by the presence of cytopathic effect and the determination of the sample title was performed with the aid of the Microsoft Office Excel program (Microsoft® Office, Redmond, WA, USA). […]

Q: For `O=C1C(Br)=C(NCc2cn(CN3C(=O)c4ccccc4C3=O)nn2)C(=O)c2ccccc21` [Compound 4b], which CC50 at 5 days [1] is on record?
A: Its CC50 at 5 days is 330 µM.

Q: What about the “CC20 (20% cytotoxic concentration)” value [2] of the same molecule?
A: The value was 136.90 µM.

Q: And the “change in virus titers vs negative control” value [3]?
A: Its value is “no significant change in virus titers”.
